“And” between values parts separate entries of the source, which are not always exact repeats. Equal values may be shown once. Read-outs that look alike come from different tables or passages of the source.
What was measured:
Assay type in all cases: in vivo, mouse
GLUT4 = GLUT4 protein in plasma membrane fraction of triceps surae muscle (immunoblot); conditions: DS20060511 10 mg kg−1 or insulin 5 U kg−1 via inferior vena cava, 10 min; Fig. 2e
Description: The plasma membrane fraction of each skeletal muscle specimen was prepared as described previously[48],[49]. Briefly, the triceps surae muscle was homogenized in Buffer A (20 mM HEPES, 1 mM EDTA, 1 mM PMSF, and protease inhibitor) containing 250 mM sucrose on ice. The muscle homogenate was centrifuged at 2000 × g for 10 min at 4 °C to remove any unhomogenized muscle fibers. The supernatant was then centrifuged at 19,000 × g for 20 min at 4 °C. The pellet was resuspended in 3 mL Buffer A, layered on a 6 mL sucrose cushion (38% sucrose in Buffer A) and centrifuged at 100,000 × g for 60 min at 4 °C. The membrane fraction recovered on top of the sucrose cushion was resuspended in Buffer A and centrifuged at 40,000 × g for 20 min at 4 °C. The pellet was designated as the plasma membrane fraction and subjected to immunoblotting.
Phosphorylated or total protein of IRβ and IRS1 was resolved on 7% SDS-PAGE and analyzed using specific antibodies against IRβ, IRS1, and phosphotyrosine. […] Bound antibodies were detected with HRP-conjugated secondary antibodies using ECL detection reagents (GE Healthcare, Chicago, IL).

C57BL/6 mice = test: Indirect calorimetry under the oral glucose tolerance test; conditions: oral GTT; 30 mg/kg po; 1 h after glucose load
Description: In the revised manuscript, we have added references
154–156. We think that the reference, PMID: 23349504, is not suitable for this context, because this […]
What is the faith of the glucose in response to DS20060511? Is it oxidized or stored as glycogen? Does it produce excessive oxidative stress? Please include such important measures.
Response: Thank you for your question. We agree that such information is important. In the revised manuscript, we have added data on the glycogen contents of the skeletal muscle, heart, and liver after 28 days of DS20060511 treatment in db/db mice, in Supplementary Fig. 5c and lines 241–243, as […]
liver, or in the glycogen contents of the muscle, heart, and liver (Supplementary Fig. 5b, c).” The […]
oxidized, and not stored as glycogen. We, however, regret not assessing the level of oxidative stress in the skeletal muscles of the db/db mice. To determine whether DS20060511 treatment might produce excessive oxidative stress, the data of indirect calorimetry under GTT in B6 mice may be […]
produce excessive oxidative stress, at least at the whole-body level in the normal state.
Indirect calorimetry under the oral glucose tolerance test. C57BL/6 mice (n = 6) that had been denied access to food overnight received oral administration of 30 […]
glucose load (1.5 g kg-1). Indirect calorimetry was performed for 1 h after the glucose load. […]

[1] = Pharmacokinetics: plasma concentration after oral administration; conditions: for concentration at 0.5 hr / concentration at 1.25 hr / concentration at 2 hr / concentration at 4 hr / concentration at 6 hr: plasma, individual mice; for concentration at 0.5 hr: read-out: Conc. (µM) 0.5 hr; for concentration at 1.25 hr: read-out: Conc. (µM) 1.25 hr; for concentration at 2 hr: read-out: Conc. (µM) 2 hr; for concentration at 4 hr: read-out: Conc. (µM) 4 hr; for concentration at 6 hr: read-out: Conc. (µM) 6 hr; for maximal plasma concentration: at 30 min
Description: C57BL/6 mice that had been denied access to food overnight received the indicated oral dose of DS20060511, and blood samples were collected from the tail vein at the indicated timepoints. Plasma samples for quantitation of DS20060511 were prepared by centrifugation. Another group of mice received oral administration DS20060511 (30 mg kg^−1) and euthanized 75 min later. The soleus and gastrocnemius muscles, heart, and inguinal WAT were removed and homogenized in water (5 vol.) for quantitation of the drug concentrations. Plasma samples and tissue homogenates were analyzed by LC-MS/MS (Nexera MP System, SHIMADZU, Kyoto, Japan; API4000 System, SCIEX, Framingham, MA). The tissue concentrations of the compound were calculated by assuming the volume of 1 g of tissue is 1 mL. Evaluation of the metabolic stability of the compound to mouse and human cytochrome P450 (CYP) was conducted as follows. The test compound (1 μM) was incubated with pooled liver microsomes (0.1 mg mL^−1) in sodium phosphate buffer (100 mM, pH 7.4) at 37 °C with an NADPH generating system: β-nicotinamide adenine dinucleotide phosphate (β-NADP) 1 mM, D-glucose 6-phosphate (G-6-P) 10 mM, glucose 6-phosphate dehydrogenase (G-6-PDH) 1 U mL^−1, and magnesium chloride 3.3 mM. After 30 min incubation, the reaction was terminated by addition of acetonitrile and samples were analyzed by LC-MS/MS. The results were expressed as the amount of compound remaining (expressed as a percentage), based on the ratio of the relative area to that in the control (without reaction).

[2] = C57BL/6, mouse, po, 1 mg/kg, 1 mg/kg oral
[3] = C57BL/6, mouse, po, 30 mg/kg, 30 mg/kg oral

COc1ccc2c(C)c(C(=O)O)ccc2c1C1C2=C(CC(C)(C)CC2=O)OC2=C1C(=O)CC(C)(C)C2 [DS20060511]
GLUT4 protein expression levels in the plasma membrane fraction of skeletal muscles (GLUT4): increased GLUT4 protein expression levels in the plasma membrane fraction | VO2 (C57BL/6 mice): no change in the VO2 | concentration at 0.5 hr [1, 2]: 0.6 µM | concentration at 1.25 hr [1, 2]: 0.23 µM | concentration at 2 hr [1, 2]: 0 µM | concentration at 4 hr [1, 2]: 0 µM | concentration at 6 hr [1, 2]: 0 µM | concentration at 4 hr ([1]; C57BL/6, mouse, po, 10 mg/kg, 10 mg/kg oral): 1.2 µM | concentration at 0.5 hr [1, 3]: 77.7 µM | concentration at 1.25 hr [1, 3]: 49.6 µM | concentration at 2 hr [1, 3]: 35 µM | maximal plasma concentration ([1]; oral 1 mg kg−1, normal mice): 0.6 µM | maximal plasma concentration ([1]; oral 10 mg kg−1): 16.5 µM | maximal plasma concentration ([1]; oral 30 mg kg−1): 71.4 µM | concentration at 0.5 hr ([1]; 1 mg/kg oral, 1 mg/kg): 0.5 µM and 0.44 µM and 0.65 µM | concentration at 1.25 hr ([1]; 1 mg/kg oral, 1 mg/kg): 0.268 µM and 0.4 µM and 0.221 µM | concentration at 0.5 hr ([1]; 10 mg/kg oral, 10 mg/kg): 17.9 µM and 8.3 µM and 19.0 µM and 20.9 µM | concentration at 1.25 hr ([1]; 10 mg/kg oral, 10 mg/kg): 3.9 µM and 5.3 µM and 9.9 µM and 11.4 µM | concentration at 2 hr ([1]; 10 mg/kg oral, 10 mg/kg): 7.0 µM and 2.1 µM and 5.0 µM and 6.6 µM | concentration at 4 hr ([1]; 10 mg/kg oral, 10 mg/kg): 0.6 µM and 0.8 µM and 0.7 µM | concentration at 6 hr ([1]; 10 mg/kg oral, 10 mg/kg): 0.285 µM and 0.0 µM and 0.323 µM | concentration at 0.5 hr ([1]; 30 mg/kg oral, 30 mg/kg): 74.9 µM and 69.3 µM and 63.8 µM | concentration at 1.25 hr ([1]; 30 mg/kg oral, 30 mg/kg): 41.0 µM and 53.8 µM | concentration at 2 hr ([1]; 30 mg/kg oral, 30 mg/kg): 28.7 µM and 34.5 µM and 44.1 µM | concentration at 4 hr ([1]; 30 mg/kg oral, 30 mg/kg): 6.7 µM and 5.3 µM and 8.2 µM and 10.7 µM | concentration at 6 hr ([1]; 30 mg/kg oral, 30 mg/kg): 1.9 µM and 1.8 µM and 1.0 µM and 3.0 µM
